Experimental data taken from patent US20200157144A1, “ANTIMICROBIAL PEPTIDOMIMETICS” (priority 2017, published 2020).
In brackets after ≈: the same amount, converted by molar mass. Where two headings read alike, the source gives them in different places. Square brackets hold non-standard residues; d marks the D form. Peptide text beside a SMILES is read from it. dBip(4'-Cl) = N[C@H](Cc1ccc(-c2ccc(Cl)cc2)cc1)C(=O)O

What was measured:
[1] = system: S. aureus (ATCC BAA-1556); experiment: microbe, parasite or virus in culture
Procedure: S. aureus (BAA-1556) was from ATCC. Mupirocin (Cat # M2955) was purchased from TCI chemicals (India) Pvt. […] Ltd, India, Cation adjusted Mueller Hinton broth (CAMHB) and Mueller Hinton Agar (MHA) (Cat # M1657) were from HiMedia Laboratories Pvt. Ltd, India.
The MIC assay was done based on CLSI guidelines in a microtitre plate format (1, 2). Preparation and dilution of Test Item (TI) stock solutions: A 1280 μg/ml stock of Compound 34 was prepared by dissolving 1.28 mg in 1.0 ml of sterile water to obtain the Master Stock (MS) solution. The MS solution was diluted 2-fold to obtain a series of Working Stock (WS) solutions (Table 7). The final concentration of solvent in the assay was 2.5% and the assay volume was […].
Preparing the inoculum: One day before initiation of experiment, an isolated colony of S. aureus (ATCC BAA-1556) was inoculated into sterile CAMHB and incubated at 37° C. to exponential phase. After incubation, the turbidity was adjusted to that of a 0.5 McFarland Standard (approximately equivalent to 1.0×10^8 CFU/ml) and diluted to ˜1.0×10^6 CFU/ml.
MIC Assay: The MIC assay was performed in a 96 well microtitre plate in a total assay volume of 100 μl (Table 7). Each well containing different concentrations of test compound (concentration range between 0.015625 and 16.0 μg/ml) was inoculated with 50 μl of bacterial suspension (prepared from the inoculum grown overnight and adjusted approximately to 5.0×10^5 CFU/ml) along with culture control (CC, culture in broth), broth control (BC, broth only), and vehicle control (VC, 2.5% solvent in broth plus culture). The plate was incubated at 37° C. for 24 hr and turbidity was measured spectrophotometrically (Absorbance microplate reader, BioTek® India, ELx800™) at 600 nm and visually. The experiment was done in duplicates. The inoculum was also plated for enumeration of bacteria. The MIC was defined as the lowest concentration of test compound that prevented bacterial growth (lack of turbidity by OD at 600 nm and visual inspection relative to no growth control).

[2] = system: Mupirocin-resistant MRSA (ATCC-BAA-1556); experiment: Time-kill assay at 4xMIC (FIG. 1); assay type: cell-based, Staphylococcus aureus; conditions: 4×MIC
[3] = system: Mupirocin-resistant MRSA (ATCC-BAA-1556); experiment: Bactericidal/static determination assay at 4xMIC (FIG. 2); assay type: cell-based, Staphylococcus aureus; conditions: 4×MIC
[4] = system: S. aureus NARSA VRS2; experiment: microbe, parasite or virus in culture; assay type: cell-based
Procedure: (§1) The antibacterial potency of Compound 34 was measured using the in vitro broth microdilution assay under assay conditions described by the Clinical and Laboratory Standards Institute. […] The test substance was dissolved in 100% DMSO (unless stated below), suspended completely by sonication or vortexing, diluted by 2-fold serial titrations in the same vehicle, for a total of 11 test concentrations. A 4 μL aliquot of each dilution was added to 196 μL of broth medium seeded with the organism suspension in wells of a 96 well plate (bacterial count: 2-8×10^5 colony forming units/mL final). The final volume was 200 μL in each well and the final DMSO concentration was 2%. The incubation time is 1 day at 36° C. All strains tested underwent aerobic respiration. Following incubation, the test plates were visually examined and wells were scored for growth or complete growth inhibition to define the minimum inhibitory concentration. Each test substance was evaluated in duplicate and the results below are the duplicate test values. Vehicle-control and an active reference agent were used as blank and positive controls, respectively.

[5] = system: S. aureus NARSA VRS3a; experiment: microbe, parasite or virus in culture; assay type: cell-based
Procedure: as §1

[6] = system: S. aureus NARSA VRS1; experiment: microbe, parasite or virus in culture; assay type: cell-based
Procedure: as §1

[7] = system: Enterococcus faecalis ATCC 51299; experiment: microbe, parasite or virus in culture; assay type: cell-based; conditions: ATCC 51299
Procedure: (§2) The antibacterial potency of Compound 34 was measured using the in vitro broth microdilution assay under assay conditions described by the Clinical and Laboratory Standards Institute. […] The test substance was dissolved in 100% DMSO (unless stated below), suspended completely by sonication or vortexing, diluted by 2-fold serial titrations in the same vehicle, for a total of 10 test concentrations (final concentrations: 100, 50, 25, 12.5, 6.25, 3.125, 1.56, 0.78, 0.39, 0.2 μM). A 4 μL aliquot of each dilution was added to 196 μL of broth medium seeded with the organism suspension in wells of a 96 well plate (bacterial count: 2-8×10^5 colony forming units/mL final). The final volume was 200 μL in each well and the final DMSO concentration was 2 percent. The incubation time is either 1 or 2 days at 36° C. All strains tested underwent aerobic respiration, except for ATCC BAA-1805 and ATCC 29399. Following incubation, the test plates were visually examined and wells were scored for growth or complete growth inhibition to define the minimum inhibitory concentration. Each test substance was evaluated in duplicate and the results below are the duplicate test values. Vehicle-control and an active reference agent were used as blank and positive controls, respectively.

[8] = system: Propionibacterium acnes ATCC 29399; experiment: microbe, parasite or virus in culture; assay type: cell-based; conditions: ATCC 29399
Procedure: as §2

[9] = system: Enterococcus faecium ATCC BAA-2320; experiment: microbe, parasite or virus in culture; assay type: cell-based; conditions: ATCC BAA-2320
Procedure: as §2

N=C(N)NCCC[C@@H](NC(=O)[C@@H](Cc1ccc(-c2ccc(Cl)cc2)cc1)NC(=O)[C@@H](CCCNC(=N)N)NC(=O)[C@H](N)Cc1ccc(-c2ccc(Cl)cc2)cc1)C(N)=O [Compound 34] (H-[dBip(4'-Cl)][dR][dBip(4'-Cl)][dR]-NH2)
Mean MIC ([1]; ATCC BAA-1556, 24 h): 2.37 µM | Mean MIC ([1]; S. aureus (ATCC BAA-1556), CAMHB, 37° C., 24 hr): 2.00 µg/mL | time-kill: rate of killing compared to Linezolid, Retapamulin and Vancomycin [2]: more rapidly as compared to Linezolid, Retapamulin and Vancomycin | bactericidal activity compared to Linezolid, Retapamulin and Vancomycin [3]: higher bactericidal activity than Linezolid, Retapamulin and Vancomycin | MIC ([4]; NARSA VRS2, read-out: MIC): 2.37 µM | MIC ([4]; S. aureus NARSA VRS2, CAMHB II): 2.0 µg/mL | MIC ([5]; NARSA VRS3a, read-out: MIC): 2.37 µM | MIC ([5]; S. aureus NARSA VRS3a, CAMHB II): 2.0 µg/mL | MIC ([6]; NARSA VRS1, read-out: MIC): 2.37 µM | MIC ([6]; S. aureus NARSA VRS1, CAMHB II): 2.0 µg/mL | MIC [7]: 3.13 µM (≈ 2.64 µg/mL) | MIC [8]: 1.56 µM (≈ 1.32 µg/mL) | MIC [9]: 1.56 µM (≈ 1.32 µg/mL)
